# Measurements taken from US6716829B2, “Aldosterone antagonist and cyclooxygenase-2 inhibitor combination therapy to prevent or treat inflammation-related cardiovascular disorders” (Pharmacia Corporation, priority 2000, dated 2004).
# Where “and” joins values, the source holds several entries; their conditions need not be identical. Equal values may be shown once. Entries after “also recorded” stand apart in the source; their conditions may differ.
# Assays:
# cyclooxygenase-2 (COX-2) = assay: Assay C: COX-2 mRNA in heart by TaqMan RT-PCR; format: in vivo, Male Sprague-Dawley rats; conditions: for COX-2 (AU): mRNA
# Description: (§1) The procedure of Assay B was expanded upon in a further study. […] Myocardial tissue from animals in each treatment group was examined after 7, 14, or 30 days of treatment.
# (§2) Potassium chloride supplementation was added to the saline solution in order to prevent the potential hypokalemia associated with aldosterone excess.
# (§3) At the time of the surgery, an Alzet 2002 osmotic minipump (Alza Corp., Palo Alto, Calif.) containing either vehicle (9% ethanol/87% propylene glycol/4% dH2O) or 1.0 mg/mL d-aldosterone (Sigma Chemical, St. Louis, Mo.) was inserted subcutaneously at the nape of the neck. Aldosterone was administered at a dose of 0.75 µg/hour. […] Animals were sacrificed from each group (n=8-13) after 7, 14, or 30 days of treatment.
# (§4) The fluorogenic 5′-nuclease assay (TaqMan PCR) using Applied Biosystems' 7700 Sequence Detection System (Applied Biosystems, Foster City, Calif.) allowed for real time detection/quantitation of a specific gene by monitoring the increase in fluorescence of a gene-specific, dye-labeled oligonucleotide probe. Probes for target and reference genes were labeled at the 5′-end with a 6-carboxyfluorescein (6FAM) reporter dye and at the 3′-end with a 6-carboxy-N,N,N′,N′-tetramethylrhodamine (TAMRA) quencher dye. When the probe was annealed to the target gene, fluorescence of 6FAM was prevented by the close proximity of TAMRA. The exonuclease activity of Taq polymerase released the dyes from the oligonucleotide probe by displacing the probe from the target sequence resulting in fluorescence excitation in direct proportion to the amount of target message present. Data analysis was performed using the Sequence Detection System software from Applied Biosystems.
# (§5) All primers and probes were designed using Primer Express software supplied with the 7700 Sequence Detection System and synthesized by Applied Biosystems. Standard curves using 5-fold dilutions of total RNA (from 200 ng to 320 pg) were performed to determine the efficiency of each primer/probe set in the TaqMan reaction prior to the analysis of the experimental samples. Primer/probe sets were designed from known sequences of rat genes to be analyzed. All target gene values were normalized to a reference gene, constitutively expressed cyclophilin. Primer/probe set sequences can be found in Table 8.
# (§6) RNA was extracted from frozen (−80° C.) rat heart tissue using the Totally RNA Isolation Kit (Ambion, Inc., Austin, Tex.). Tissue was crushed using a stainless steel mortar and pestle, which had been chilled to −80° C. and transferred to a dounce homogenizer (Kontes, Vineland, N.J.) containing 3-10 mL cold denaturation buffer. Tissue was homogenized and transferred to a sterile, 15 mL polypropylene centrifuge tube. An equal volume of phenol:chloroform:isoamyl alcohol (25:24:1) was added, samples were shaken vigorously for 1 min, and incubated on ice for at least 15 min. Samples were centrifuged for 30 min at 10,000g. The aqueous phase was removed, 1/10 volume of a sodium acetate solution (3.0 M NaOAc pH 4.5) was added, samples were shaken or inverted for 10 seconds, and acid-phenol (premixed with isoamyl alcohol):chloroform (5:1, Ambion, Inc.) was added at an volume equivalent to the starting sample volume. Samples were shaken vigorously for 1 min, followed by a 15-min incubation on ice, and centrifuged for 30 min at 10,000 g. The aqueous phase removed and placed in a clean polypropylene tube. An equal volume of isopropanol (Sigma, St. Louis, Mo.) was added and the samples were mixed and incubated overnight at −20° C. The samples were centrifuged for 30 min at 10,000 g, the supernatant was removed and the RNA pellet was resuspended in DNAse/RNAse-free water. Samples were frozen at −80° C. for at least 2 hours, thawed on wet ice, and diluted for quantitation.
# [1] = test system: angiotensin II infused rats; assay: Assay A: urinary electrolyte excretion (urinary Na+/K+ ratio as index for natriuresis); format: in vivo, Male Wistar rats; conditions: 1% NaCl, eplerenone 100 mpk
# Text: 24-hours food and fluid intake and urine output measured every day Urine samples collected every day for determination of urinary electrolytes. Electrolyte excretion. The ratio between daily urinary Na^+ excretion and urinary K^+ excretion (U Na^+/K^+ ratio) was used as an index for natriuresis. Urinary Na^+/K^+ ratio was similar in all groups before the start of the treatments, and increased similarly in all animals upon initiation of the high salt diet.
# osteopontin [2] = assay: Assay A: immunostaining of hearts with osteopontin-specific antibody; format: in vivo, Male Wistar rats; conditions: angiotensin II-infused, saline-drinking rats; eplerenone 100 mpk; aldosterone replacement in adrenalectomized rats
# Text: Osteopontin (also known as early T-cell activation-1, Eta-1) is a secreted glycoprotein with pro-inflammatory characteristics that mediates chemoattraction, activation and migration of monocytes.
# Osteopontin [3] = assay: Assay C: osteopontin mRNA in heart by TaqMan RT-PCR; format: in vivo, Male Sprague-Dawley rats; conditions: for Osteop-pontin mRNA (AU): relative to cyclophilin expression, mean ± SEM, eplerenone dose 100 mg/kg/day; for Osteopontin (AU): mRNA, individual rats, incl. rat marked * excluded from statistics, listed as Eplerenone + aldosterone + salt
# Description: as §1, §2, §3, §4, §5, §6
# [4] = test system: vascular cell adhesion molecule-1 (VCAM-1); assay: Assay C: VCAM-1 mRNA in heart by TaqMan RT-PCR; format: in vivo, Male Sprague-Dawley rats; conditions: for VCAM mRNA (AU): relative to cyclophilin expression, mean ± SEM, eplerenone dose 100 mg/kg/day; for VCAM (AU): mRNA
# Description: as §1, §2, §3, §4, §5, §6
# MCP-1 = assay: Assay B: MCP-1 mRNA expression at 28 days; format: in vivo, Male Sprague Dawley rats; conditions: aldosterone infused rats, 28 days (FIG. 46)
# Description: Assay B: In Vivo Aldosterone Infusion Model Male Sprague Dawley rats (n=39; BW=250 g) 2. Aldosterone (0.75 mg/hr, sc via alzet minipump) 2.
# cyclooxgenase-2 = assay: Assay A: immunostaining of hearts with cyclooxygenase-2 specific antibody; format: in vivo, Male Wistar rats; conditions: angiotensin II infused rats, eplerenone 100 mpk, aldosterone replacement in adrenalectomized rats
# Text: Cycloxygenase-2 staining was also observed in the vascular smooth muscle cells of the media of coronary arteries, even when there was no evidence of morphologic alterations or inflammatory aggregates in the perivascular space (FIG. 26).
# [5] = group mean, data used for Table 17 (7-day protocol)
# [6] = group mean, data used for Table 18 (14-day protocol)
# [7] = group mean, data used for Table 19 (30-day protocol)
# [8] = individual rats, data used for Table 17 (7-day protocol), incl. rat marked * excluded from statistics, listed as Eplerenone + aldosterone + salt
# [9] = individual rats, data used for Table 18 (14-day protocol), incl. rat marked * excluded from statistics, listed as Eplerenone + aldosterone + salt
# [10] = individual rats, data used for Table 19 (30-day protocol), incl. rat marked * excluded from statistics, listed as Eplerenone + aldosterone + salt
# [11] = myocardium, aldosterone + salt, 7, 14, 30 days, eplerenone 100 mg/kg/day
structure (smiles),measurement,setting,value
COC(=O)[C@@H]1CC2=CC(=O)CC[C@]2(C)[C@@]23O[C@@H]2C[C@@]2(C)[C@@H](CC[C@@]24CCC(=O)O4)[C@H]13 [Eplerenone],COX-2 (AU),cyclooxygenase-2 (COX-2); [5],1.25 AU
same,COX-2 (AU),cyclooxygenase-2 (COX-2); [6],2.02 AU
same,COX-2 (AU),cyclooxygenase-2 (COX-2); [7],2.28 AU
same,COX-2 (AU),cyclooxygenase-2 (COX-2); [8],1.19 AU and 2.85 AU and 0.60 AU (2×) and 1.16 AU and 0.82 AU and 1.86 AU and 0.91 AU
same,COX-2 (AU),cyclooxygenase-2 (COX-2); [9],1.56 AU and 1.04 AU and 0.70 AU and 1.41 AU and 3.78 AU and 1.86 AU and 6.19 AU and 1.87 AU and 0.99 AU and 1.92 AU and 0.86 AU
same,COX-2 (AU),cyclooxygenase-2 (COX-2); [10],2.44 AU and 0.55 AU and 1.97 AU and 3.41 AU and 3.71 AU and 3.04 AU and 2.11 AU and 1.34 AU and 1.92 AU and 12.21 AU
same,COX-2 mRNA expression,cyclooxygenase-2 (COX-2); [11],inhibition; also recorded: significantly reduced
same,Urinary Na+/K+ ratio (diuretic or natriuretic effect),[1],did not produce a significant diuretic or natriuretic effect
same,Osteopontin expression in the heart (immunostaining),osteopontin [2],prevented osteopontin expression
same,Osteop-pontin mRNA (AU),Osteopontin [3]; after 7 days of treatment,0.75 AU
same,Osteop-pontin mRNA (AU),Osteopontin [3]; after 14 days of treatment,2.94 AU
same,Osteop-pontin mRNA (AU),Osteopontin [3]; after 30 days of treatment,2.59 AU
same,Osteopontin (AU),Osteopontin [3]; data used for Table 17 (7-day protocol),0.54 AU and 1.24 AU and 0.52 AU and 0.27 AU and 0.60 AU and 1.13 AU and 0.96 AU and 0.75 AU
same,Osteopontin (AU),Osteopontin [3]; data used for Table 18 (14-day protocol),4.03 AU and 1.00 AU and 0.77 AU and 8.43 AU and 1.59 AU and 3.97 AU and 3.93 AU and 2.13 AU and 0.72 AU and 4.76 AU and 0.99 AU
same,Osteopontin (AU),Osteopontin [3]; data used for Table 19 (30-day protocol),1.53 AU and 3.28 AU and 1.98 AU and 8.91 AU and 1.88 AU and 1.97 AU and 1.28 AU and 1.43 AU and 1.01 AU and 54.57 AU
same,Osteopontin mRNA expression,Osteopontin [3]; [11],inhibition; also recorded: significantly reduced
same,VCAM mRNA (AU),[4]; after 7 days of treatment,0.56 ± 0.08 AU
same,VCAM mRNA (AU),[4]; after 14 days of treatment,0.83 AU
same,VCAM mRNA (AU),[4]; after 30 days of treatment,1.04 ± 0.14 AU
same,VCAM (AU),[4]; [5],0.56 AU
same,VCAM (AU),[4]; [6],0.83 AU
same,VCAM (AU),[4]; [7],1.04 AU
same,VCAM (AU),[4]; [8],0.67 AU and 0.58 AU and 0.22 AU and 0.57 AU and 0.53 AU and 1.00 AU
same,VCAM (AU),[4]; [9],0.54 AU and 0.66 AU and 0.61 AU (2×) and 0.67 AU and 0.86 AU and 1.21 AU and 1.00 AU and 0.68 AU (2×) and 1.60 AU
same,VCAM (AU),[4]; [10],1.42 AU (2×) and 1.29 AU and 1.49 AU and 1.27 AU and 0.79 AU and 0.52 AU and 0.57 AU and 0.61 AU and 4.01 AU
same,VCAM-1 mRNA expression,[4]; [11],inhibition; also recorded: significantly reduced
same,MCP-1 expression,MCP-1,attenuated
same,Cyclooxygenase-2 expression in the heart (immunostaining),cyclooxgenase-2,markedly reduced and in most cases completely prevented
same,Cyclooxygenase-2 expression in the heart (immunostaining),cyclooxgenase-2; listed as eplerenone,prevention
